Patent publication US20230242585A1, “IMMUNOMODULATORS” (Bristol-Myers Squibb Company, priority 2020, published 2023)
Starred links: 1 amine or outer side, 2 acyl side, 3 side chain; linkers in the order of their positions; H or OH if unused. Positions of bridges follow the written chain, without caps; N, C: chain ends. Non-standard residues stand in square brackets, D forms with d. Residues, ends and D or L forms follow the SMILES beside them. X34 = O=C([C@H](CCNC[C@H](O)[C@@H](O)[C@@H](O)CO)N[*:1])[*:2]; X33 = O=C([C@H](CNC[C@H](O)[C@@H](O)[C@@H](O)CO)N[*:1])[*:2]; X26 = O=C([C@H](CCNC[C@H](O)[C@H](O)[C@H](O)CO)N[*:1])[*:2]; X7 = O=C([C@H](CNC[C@H](O)[C@H](O)[C@H](O)CO)N[*:1])[*:2]; Trp(1-CH2COOH) = N[C@@H](Cc1cn(CC(=O)O)c2ccccc12)C(=O)O; X21 = O=C([C@H](CCNCc1c2ccccc2nc2ccccc12)N[*:1])[*:2]; X55 = O=C([C@H](CCNCc1cccc2ccc3ccccc3c12)N[*:1])[*:2]; X10 = O=C([C@H](CNCc1c2ccccc2nc2ccccc12)N[*:1])[*:2]; X12 = O=C([C@H](CNCc1cccc2ccc3ccccc3c12)N[*:1])[*:2]; X36 = COc1cc2cccc(OC)c2cc1CNC[C@H](N[*:1])C(=O)[*:2]; X13 = O=C([C@H](CNCc1cccc2[nH]ccc12)N[*:1])[*:2]; X16 = O=C([C@H](CCNCC(O)C(O)C(O)CO)N[*:1])[*:2]; X15 = O=C([C@H](CNCC(O)C(O)C(O)CO)N[*:1])[*:2]; X17 = O=C([C@H](CNCc1cncc2ccccc12)N[*:1])[*:2]; X20 = O=C([C@H](CNCc1nccc2ccccc12)N[*:1])[*:2]; X61 = O=C([C@H](CCNCc1ccccc1O)N[*:1])[*:2]; X60 = O=C([C@H](CNCc1ccccc1O)N[*:1])[*:2]; Hyp = O=C(O)[C@@H]1C[C@@H](O)CN1; NMeNle = CCCC[C@H](NC)C(=O)O; NMeA = CN[C@@H](C)C(=O)O; Dab = NCC[C@H](N)C(=O)O

Molecular target: T1, PD-1/PD-L1 (Homo sapiens, UniProt Q9NZQ7)
T1 construct: TVMV protease site (linker) (C); made in house; host or cells: HEK293T cells
T1 sequence (Q9NZQ7 18-239): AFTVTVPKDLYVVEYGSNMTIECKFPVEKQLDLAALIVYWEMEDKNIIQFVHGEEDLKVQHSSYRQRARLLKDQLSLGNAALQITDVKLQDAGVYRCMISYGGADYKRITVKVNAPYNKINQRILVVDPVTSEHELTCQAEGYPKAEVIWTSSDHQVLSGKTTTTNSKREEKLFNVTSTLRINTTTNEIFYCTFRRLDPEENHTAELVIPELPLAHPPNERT
Experiment: PD-1/PD-L1 Homogenous Time-Resolved Fluorescence (HTRF) binding assay
Conditions: PD-L1-His 10 nM, PD-1-Ig 20 nM
Excerpt: The ability of the compounds of formula (I) to bind to PD-L1 was investigated using a PD-1/PD-L1 Homogenous Time-Resolved Fluorescence (HTRF) binding assay.
The interaction of PD-1 and PD-L1 can be assessed using soluble, purified preparations of the extracellular domains of the two proteins. The PD-1 and PD-L1 protein extracellular domains were expressed as fusion proteins with detection tags, for PD-1, the tag was the Fc portion of Immunoglobulin (PD-1-Ig) and for PD-L1 it was the 6 histidine motif (PD-L1-His). All binding studies were performed in an HTRF assay buffer consisting of dPBS supplemented with 0.1% […] bovine serum albumin and 0.05% (v/v) Tween-20. For the h/PD-L1-His binding assay, inhibitors were pre-incubated with PD-L1-His (10 nM final) for 15 m in 4 µl of assay buffer, followed by addition of PD-1-Ig (20 nM final) in 1 µl of assay buffer and further incubation for 15 m. HTRF detection was achieved using europium crypate-labeled anti-Ig (1 nM final) and allophycocyanin (APC) labeled anti-His (20 nM final). Antibodies were diluted in HTRF detection buffer and 5 µl was dispensed on top of the binding reaction. The reaction mixture was allowed to equilibrate for 30 minutes and the resulting signal (665 nm/620 nm ratio) was obtained using an EnVision fluorometer. Additional binding assays were established between the human proteins PD-1-Ig/PD-L2-His (20 & 5 nM, respectively) and CD80-His/PD-L1-Ig (100 & 10 nM, respectively).
Recombinant Proteins: Human PD-1 (25-167) with a C-terminal human Fc domain of immunoglobulin G (Ig) epitope tag [hPD-1 (25-167)-3S-IG] and human PD-L1 (18-239) with a C-terminal His epitope tag [hPD-L1(18-239)-TVMV-His] were expressed in HEK293T cells and purified sequentially by ProteinA affinity chromatography and size exclusion chromatography. Human PD-L2-His and CD80-His was obtained through commercial sources.
Table 1 lists the IC50 values for representative examples of this disclosure measured in the PD-1/PD-L1 Homogenous Time-Resolved Fluorescence (HTRF) binding assay.

Row | SMILES | IC50 [nM]
1 | CCCC[C@H]1C(=O)N(C)[C@@H](CCCC)C(=O)N[C@@H](CC(C)C)C(=O)N[C@H](C(=O)NCC(N)=O)CSCC(=O)N[C@@H](Cc2ccc(O)cc2)C(=O)N(C)[C@@H](C)C(=O)N[C@@H](CC(N)=O)C(=O)N2CCC[C@H]2C(=O)N[C@@H](CNCc2cccc3[nH]ccc23)C(=O)N[C@@H](CC(C)C)C(=O)N2C[C@H](O)C[C@H]2C(=O)N[C@@H](Cc2c[nH]c3ccccc23)C(=O)N[C@@H](CCN)C(=O)N[C@@H](Cc2cn(CC(=O)O)c3ccccc23)C(=O)N1C [Example 1015] ({CH2CO}-Y[NMeA]NP[X13]L[Hyp]W[Dab][Trp(1-CH2COOH)][NMeNle][NMeNle]LCG-NH2; thioether N-14) | 5.1
2 | CCCC[C@H]1C(=O)N(C)[C@@H](CCCC)C(=O)N[C@@H](CC(C)C)C(=O)N[C@H](C(=O)NCC(N)=O)CSCC(=O)N[C@@H](Cc2ccc(O)cc2)C(=O)N(C)[C@@H](C)C(=O)N[C@@H](CC(N)=O)C(=O)N2CCC[C@H]2C(=O)N[C@@H](CNCc2cc3c(OC)cccc3cc2OC)C(=O)N[C@@H](CC(C)C)C(=O)N2C[C@H](O)C[C@H]2C(=O)N[C@@H](Cc2c[nH]c3ccccc23)C(=O)N[C@@H](CCN)C(=O)N[C@@H](Cc2cn(CC(=O)O)c3ccccc23)C(=O)N1C [Example 1016] ({CH2CO}-Y[NMeA]NP[X36]L[Hyp]W[Dab][Trp(1-CH2COOH)][NMeNle][NMeNle]LCG-NH2; thioether N-14) | 6.4
3 | CCCC[C@H]1C(=O)N(C)[C@@H](CCCC)C(=O)N[C@@H](CC(C)C)C(=O)N[C@H](C(=O)NCC(N)=O)CSCC(=O)N[C@@H](Cc2ccc(O)cc2)C(=O)N(C)[C@@H](C)C(=O)N[C@@H](CC(N)=O)C(=O)N2CCC[C@H]2C(=O)N[C@@H](CNCc2nccc3ccccc23)C(=O)N[C@@H](CC(C)C)C(=O)N2C[C@H](O)C[C@H]2C(=O)N[C@@H](Cc2c[nH]c3ccccc23)C(=O)N[C@@H](CCN)C(=O)N[C@@H](Cc2cn(CC(=O)O)c3ccccc23)C(=O)N1C [Example 1018] ({CH2CO}-Y[NMeA]NP[X20]L[Hyp]W[Dab][Trp(1-CH2COOH)][NMeNle][NMeNle]LCG-NH2; thioether N-14) | 8.4
4 | CCCC[C@H]1C(=O)N(C)[C@@H](CCCC)C(=O)N[C@@H](CC(C)C)C(=O)N[C@H](C(=O)NCC(N)=O)CSCC(=O)N[C@@H](Cc2ccc(O)cc2)C(=O)N(C)[C@@H](C)C(=O)N[C@@H](CC(N)=O)C(=O)N2CCC[C@H]2C(=O)N[C@@H](CNCc2cncc3ccccc23)C(=O)N[C@@H](CC(C)C)C(=O)N2C[C@H](O)C[C@H]2C(=O)N[C@@H](Cc2c[nH]c3ccccc23)C(=O)N[C@@H](CCN)C(=O)N[C@@H](Cc2cn(CC(=O)O)c3ccccc23)C(=O)N1C [Example 1019] ({CH2CO}-Y[NMeA]NP[X17]L[Hyp]W[Dab][Trp(1-CH2COOH)][NMeNle][NMeNle]LCG-NH2; thioether N-14) | 7.9
5 | CCCC[C@H]1C(=O)N(C)[C@@H](CCCC)C(=O)N[C@@H](CC(C)C)C(=O)N[C@H](C(=O)NCC(N)=O)CSCC(=O)N[C@@H](Cc2ccc(O)cc2)C(=O)N(C)[C@@H](C)C(=O)N[C@@H](CC(N)=O)C(=O)N2CCC[C@H]2C(=O)N[C@@H](CNCc2c3ccccc3nc3ccccc23)C(=O)N[C@@H](CC(C)C)C(=O)N2C[C@H](O)C[C@H]2C(=O)N[C@@H](Cc2c[nH]c3ccccc23)C(=O)N[C@@H](CCNCc2c3ccccc3nc3ccccc23)C(=O)N[C@@H](Cc2cn(CC(=O)O)c3ccccc23)C(=O)N1C [Example 1020] ({CH2CO}-Y[NMeA]NP[X10]L[Hyp]W[X21][Trp(1-CH2COOH)][NMeNle][NMeNle]LCG-NH2; thioether N-14) | 9.9
6 | CCCC[C@H]1C(=O)N(C)[C@@H](CCCC)C(=O)N[C@@H](CC(C)C)C(=O)N[C@H](C(=O)NCC(N)=O)CSCC(=O)N[C@@H](Cc2ccc(O)cc2)C(=O)N(C)[C@@H](C)C(=O)N[C@@H](CC(N)=O)C(=O)N2CCC[C@H]2C(=O)N[C@@H](CNCc2cccc3ccc4ccccc4c23)C(=O)N[C@@H](CC(C)C)C(=O)N2C[C@H](O)C[C@H]2C(=O)N[C@@H](Cc2c[nH]c3ccccc23)C(=O)N[C@@H](CCNCc2cccc3ccc4ccccc4c23)C(=O)N[C@@H](Cc2cn(CC(=O)O)c3ccccc23)C(=O)N1C [Example 1022] ({CH2CO}-Y[NMeA]NP[X12]L[Hyp]W[X55][Trp(1-CH2COOH)][NMeNle][NMeNle]LCG-NH2; thioether N-14) | 1400

Now from value to compound:

Row | IC50 [nM] | SMILES
7 | 7.6 | CCCC[C@H]1C(=O)N(C)[C@@H](CCCC)C(=O)N[C@@H](CC(C)C)C(=O)N[C@H](C(=O)NCC(N)=O)CSCC(=O)N[C@@H](Cc2ccc(O)cc2)C(=O)N(C)[C@@H](C)C(=O)N[C@@H](CC(N)=O)C(=O)N2CCC[C@H]2C(=O)N[C@@H](CNCc2ccccc2O)C(=O)N[C@@H](CC(C)C)C(=O)N2C[C@H](O)C[C@H]2C(=O)N[C@@H](Cc2c[nH]c3ccccc23)C(=O)N[C@@H](CCNCc2ccccc2O)C(=O)N[C@@H](Cc2cn(CC(=O)O)c3ccccc23)C(=O)N1C [Example 1021] ({CH2CO}-Y[NMeA]NP[X60]L[Hyp]W[X61][Trp(1-CH2COOH)][NMeNle][NMeNle]LCG-NH2; thioether N-14)
8 | 7.8 | CCCC[C@H]1C(=O)N(C)[C@@H](CCCC)C(=O)N[C@@H](CC(C)C)C(=O)N[C@H](C(=O)NCC(N)=O)CSCC(=O)N[C@@H](Cc2ccc(O)cc2)C(=O)N(C)[C@@H](C)C(=O)N[C@@H](CC(N)=O)C(=O)N2CCC[C@H]2C(=O)N[C@@H](CNCC(O)C(O)C(O)CO)C(=O)N[C@@H](CC(C)C)C(=O)N2C[C@H](O)C[C@H]2C(=O)N[C@@H](Cc2c[nH]c3ccccc23)C(=O)N[C@@H](CCNCC(O)C(O)C(O)CO)C(=O)N[C@@H](Cc2cn(CC(=O)O)c3ccccc23)C(=O)N1C (stereo partly drawn) [Example 2001] ({CH2CO}-Y[NMeA]NP[X15]L[Hyp]W[X16][Trp(1-CH2COOH)][NMeNle][NMeNle]LCG-NH2; thioether N-14)
9 | 5 | CCCC[C@H]1C(=O)N(C)[C@@H](CCCC)C(=O)N[C@@H](CC(C)C)C(=O)N[C@H](C(=O)NCC(N)=O)CSCC(=O)N[C@@H](Cc2ccc(O)cc2)C(=O)N(C)[C@@H](C)C(=O)N[C@@H](CC(N)=O)C(=O)N2CCC[C@H]2C(=O)N[C@@H](CNC[C@H](O)[C@@H](O)[C@@H](O)CO)C(=O)N[C@@H](CC(C)C)C(=O)N2C[C@H](O)C[C@H]2C(=O)N[C@@H](Cc2c[nH]c3ccccc23)C(=O)N[C@@H](CCN)C(=O)N[C@@H](Cc2cn(CC(=O)O)c3ccccc23)C(=O)N1C [Example 2002] ({CH2CO}-Y[NMeA]NP[X33]L[Hyp]W[Dab][Trp(1-CH2COOH)][NMeNle][NMeNle]LCG-NH2; thioether N-14)
10 | 9.9 | CCCC[C@H]1C(=O)N(C)[C@@H](CCCC)C(=O)N[C@@H](CC(C)C)C(=O)N[C@H](C(=O)NCC(N)=O)CSCC(=O)N[C@@H](Cc2ccc(O)cc2)C(=O)N(C)[C@@H](C)C(=O)N[C@@H](CC(N)=O)C(=O)N2CCC[C@H]2C(=O)N[C@@H](CNC[C@H](O)[C@H](O)[C@H](O)CO)C(=O)N[C@@H](CC(C)C)C(=O)N2C[C@H](O)C[C@H]2C(=O)N[C@@H](Cc2c[nH]c3ccccc23)C(=O)N[C@@H](CCNC[C@H](O)[C@H](O)[C@H](O)CO)C(=O)N[C@@H](Cc2cn(CC(=O)O)c3ccccc23)C(=O)N1C [Example 2003] ({CH2CO}-Y[NMeA]NP[X7]L[Hyp]W[X26][Trp(1-CH2COOH)][NMeNle][NMeNle]LCG-NH2; thioether N-14)
11 | 6.7 | CCCC[C@H]1C(=O)N(C)[C@@H](CCCC)C(=O)N[C@@H](CC(C)C)C(=O)N[C@H](C(=O)NCC(N)=O)CSCC(=O)N[C@@H](Cc2ccc(O)cc2)C(=O)N(C)[C@@H](C)C(=O)N[C@@H](CC(N)=O)C(=O)N2CCC[C@H]2C(=O)N[C@@H](CNC[C@H](O)[C@@H](O)[C@@H](O)CO)C(=O)N[C@@H](CC(C)C)C(=O)N2C[C@H](O)C[C@H]2C(=O)N[C@@H](Cc2c[nH]c3ccccc23)C(=O)N[C@@H](CCNC[C@H](O)[C@@H](O)[C@@H](O)CO)C(=O)N[C@@H](Cc2cn(CC(=O)O)c3ccccc23)C(=O)N1C [Example 2004] ({CH2CO}-Y[NMeA]NP[X33]L[Hyp]W[X34][Trp(1-CH2COOH)][NMeNle][NMeNle]LCG-NH2; thioether N-14)
12 | 12 | CCCC[C@H]1C(=O)N(C)[C@@H](CCCC)C(=O)N[C@@H](CC(C)C)C(=O)N[C@H](C(=O)NCC(N)=O)CSCC(=O)N[C@@H](Cc2ccc(O)cc2)C(=O)N(C)[C@@H](C)C(=O)N[C@@H](CC(N)=O)C(=O)N2CCC[C@H]2C(=O)N[C@@H](CNC[C@H](O)[C@H](O)[C@H](O)CO)C(=O)N[C@@H](CC(C)C)C(=O)N2C[C@H](O)C[C@H]2C(=O)N[C@@H](Cc2c[nH]c3ccccc23)C(=O)N[C@@H](CCN)C(=O)N[C@@H](Cc2cn(CC(=O)O)c3ccccc23)C(=O)N1C [Example 2006] ({CH2CO}-Y[NMeA]NP[X7]L[Hyp]W[Dab][Trp(1-CH2COOH)][NMeNle][NMeNle]LCG-NH2; thioether N-14)
